Data set [1] deals with mesangial cells. Briefly: Effect on anti-Thy-1 antibody nephritis in rats (number of mesangial cells per glomerulus). It counts as in vivo, rat. The note with it: 100 mg/kg p.o. once a day for 7 days, n=5, mean ± standard error, **P < 0.01, controls (distilled water): 59.5 ± 3.5 (No. 1), 61.8 ± 2.2 (No. 2), 54.8 ± 2.1 (No. 9), intact animal 43.
Protocol: Anti-Thy-1 antibody-induced nephritis is a model of glomerulonephritis constructed by utilizing the reaction between the Thy-1 antigen occurring as a membrane protein of mesangial cells and the antibody to the antigen. In this model, injuries to mesangial cells and lesions associated with mesangial cell proliferation are found.
Preparation of anti-Thy-1 antibody
Preparation of the antibody was carried out in accordance with the method of Ishizaki et al. referred to above. Thus, an adjuvant suspension of rat thymocytes was prepared and subcutaneously administered to rabbits for immunization. After two booster doses, the blood was collected and the serum separated was subjected to inactivation and absorption to provide an antiserum (anti-Thy-1 antibody).
A predetermined amount of the antiserum was injected intravenously from the tail vein of rats to induce nephritis. Starting the following day after injection, a suspension of the test drug was administered orally once a day for 7 days. On day 8 following the beginning of administration, the animals were sacrificed and the kidneys were removed. The kidney was fixed in 10% phosphate-buffered formalin and, in the routine manner, paraffin sections were prepared and stained with periodic acid-schiff stain for microscopy. For histopathological evaluation, the number of cells in the glomeruli (mainly mesangial cells) in each tissue preparation was counted under a light microscope. Statistical analysis was performed by unpaired t-test.
The test system of data set [2] is MRL/lpr mice. Description: Effect on nephritis in MRL/lpr mice: incidence of proteinuria. It counts as in vivo, mouse. The note with it: 10 weeks; for Number of animals with proteinuria, grade 1+ (30-100 mg/dl) / Number of animals with proteinuria, grade - (negative): control 0 of 12; for Number of animals with proteinuria, grade 3+ (300-1000 mg/dl): control 1 of 12; for Number of animals with proteinuria, grade 2+ (100-300 mg/dl): control 4 of 12; for Number of animals with proteinuria, grade 4+ (>1000 mg/dl): control 7 of 12, *P < 0.05. How it is done:
(§1) Effect on nephritis in MRL/lpr mice
(§2) The MRL/lpr mouse is a model of lupus nephritis in mice which spontaneously and secondarily develop proliferative glomerulonephritis due to autoimmune disease. Using this nephritis model, a 10-week long-term oral administration experiment with the test drugs was performed.
(§3) MRL/lpr mice purchased from Jackson Laboratory and maintained in Nippon Shinyaku Co., Ltd. were used.
(§4) A suspension of each test drug was administered orally once a day on 6 days per week from the age 8 weeks for 10 weeks. During the administration period, the semi-quantitative test for urinary protein (regent strips) was performed. At the end of the administration period, the animals were sacrificed and the kidneys were removed. The kidney was fixed in 10% phosphate-buffered formalin and, in the routine manner, paraffin sections were prepared and stained with periodic acid-Schiff stain for microscopy. For histopathological evaluation, the glomerular lesions in each tissue preparation were observed by light microscopy and graded according to the method of Berden (J. Immunology, 130, 1699-1705, 1983) and the incidence (%) of each grade was calculated for each group. Statistical analysis was performed by Mann Whitney's rank-sum test.

Data set [3] concerns glomeruli. Briefly: Effect on nephritis in MRL/lpr mice: histopathological findings of glomeruli. It counts as in vivo, mouse. The note with it: 10 weeks; for Incidence of glomerular lesions, grade - (no remarkable change): control 1; for Incidence of glomerular lesions, grade 4+ (extremely marked change): control 8, **P < 0.01; for Incidence of glomerular lesions, grade 1+ (slight change): control 14; for Incidence of glomerular lesions, grade 3+ (marked change): control 25; for Incidence of glomerular lesions, grade 2+ (moderate change): control 52. How it is done: as §1, §2, §3, §4

Data set [4] concerns mice. Description: Acute toxicity. The format is in vivo, mouse. Conditions: 2 g/kg p.o.; for Acute toxicity: abnormal findings: general condition up to 1 week; for Acute toxicity: death: observed up to 1 week. An excerpt:
Compound No. 1 and the compound No. 9 were examined.

For data set [5], the system named is mesangial cells. Briefly: Inhibitory effect on mesangial cell proliferation in vitro. The format is cell-based. Conditions: Rattus norvegicus, 10 μg/ml, 72 hours, LPS-stimulated macrophage culture supernatant, crystal violet, relative to control, read-out: Inhibition rate of mesangial cell proliferation in vitro. As to the method: Inhibitory effect on mesangial cell proliferation in vitro
Glomeruli were isolated from the rat kidney by the sieving method. Mesangial cells were obtained from isolated these glomeruli which were maintained in culture. The mesangial cells were seeded on the plate and, after 24 hours, an LPS (lipopolysaccharide)-stimulated macrophage culture supernatant (a solution containing growth factor) and the test drug were added and the plate was incubated for 72 hours. The mesangial cells were fixed and stained with crystal violet and the absorbance was measured. The inhibitory activity of the mesangial cell proliferation of the test compound was evaluated in relative inhibition rate (%) in comparison with the absorbance of the control obtained under the same culture conditions.

Each structure is given as a SMILES string.

Regarding `CC1(C)CC[C@]2(C(=O)O)CC[C@]3(C)C(=CC[C@@H]4[C@@]5(C)CC[C@H](O)[C@@](C)(CO)[C@@H]5CC[C@]43C)[C@@H]2C1` [Compound No. 1, 3β,23-dihydroxyolean-12-en-28-oic acid], the “Number of mesangial cells per glomerulus” value in data set [1] is reported as 48.2 ± 1.6. Moreover, in data set [2] (10 mg/kg p.o., n=13), the “Number of animals with proteinuria, grade 1+ (30-100 mg/dl)” value was 7; the “Number of animals with proteinuria, grade - (negative)” value worked out at 0; the “Number of animals with proteinuria, grade 3+ (300-1000 mg/dl)” value is on record as 1; the “Number of animals with proteinuria, grade 2+ (100-300 mg/dl)” value amounted to 2. Moreover, the “Number of animals with proteinuria, grade 4+ (>1000 mg/dl)” value in data set [2] (10 mg/kg p.o., n=13) was found to be 3. Also, in data set [2] (30 mg/kg p.o., n=14), the “Number of animals with proteinuria, grade 1+ (30-100 mg/dl)” value was 4; the “Number of animals with proteinuria, grade - (negative)” value was determined as 3; the “Number of animals with proteinuria, grade 3+ (300-1000 mg/dl)” value is 5; the “Number of animals with proteinuria, grade 2+ (100-300 mg/dl)” value was found to be 0. In data set [2] (30 mg/kg p.o., n=14), the “Number of animals with proteinuria, grade 4+ (>1000 mg/dl)” value is 2. In addition, in data set [3] (10 mg/kg p.o.), the “Incidence of glomerular lesions, grade - (no remarkable change)” value amounted to 3%; the “Incidence of glomerular lesions, grade 4+ (extremely marked change)” value is recorded as 2%; the “Incidence of glomerular lesions, grade 1+ (slight change)” value is listed as 29%; the “Incidence of glomerular lesions, grade 3+ (marked change)” value was 9%. The “Incidence of glomerular lesions, grade 2+ (moderate change)” value in data set [3] (10 mg/kg p.o.) is given as 57%. Moreover, in data set [3] (30 mg/kg p.o.), the “Incidence of glomerular lesions, grade - (no remarkable change)” value amounted to 3%; the “Incidence of glomerular lesions, grade 4+ (extremely marked change)” value was 0%; the “Incidence of glomerular lesions, grade 1+ (slight change)” value turned out to be 25%; the “Incidence of glomerular lesions, grade 3+ (marked change)” value was determined as 9%. In addition, the “Incidence of glomerular lesions, grade 2+ (moderate change)” value in data set [3] (30 mg/kg p.o.) was determined as 63%. Moreover, in data set [4], the “Acute toxicity: abnormal findings” value is given as “nor was there any abnormal findings” and the “Acute toxicity: death” value was “no death was encountered”.
On to `CC(=O)OCCOC(=O)[C@]12CCC(C)(C)C[C@H]1C1=CC[C@@H]3[C@@]4(C)CC[C@H](O)[C@@](C)(CO)[C@@H]4CC[C@@]3(C)[C@]1(C)CC2` [Compound No. 2, 2-Acetoxyethyl 3β,23(4α)-dihydroxyolean-12-en-28-oate], for which the “Number of mesangial cells per glomerulus” value in data set [1] was found to be 50.9 ± 1.3. In addition, the inhibition at 10 µg/mL in data set [5] was 57.9%.
`COCCNC(=O)[C@]12CCC(C)(C)C[C@H]1C1=CC[C@@H]3[C@@]4(C)CC[C@H](O)[C@@](C)(CO)[C@@H]4CC[C@@]3(C)[C@]1(C)CC2` [Compound No. 9, N-(2-methoxyethyl)-3β,23(4α)-dihydroxyolean-12-en-28-amide]: the “Number of mesangial cells per glomerulus” value in data set [1] was found to be 45.8 ± 0.7. Further, the inhibition at 10 µg/mL in data set [5] stood at 43.3%. In data set [4], the “Acute toxicity: abnormal findings” value was “nor was there any abnormal findings” and the “Acute toxicity: death” value is on record as “no death was encountered”.

Values taken from patent US5885992A, “Triterpene derivative and medicinal composition” (Nippon Shinyaku Company, Limited, priority 1994, dated 1999).
